The text below walks through data of US11535623B2, “Cryptate compounds” (Australian Nuclear Science and Technology Organisation, priority 2011, dated 2022).

Data set [1] in a line: Clearance from the kidneys after administration to mice. The format is in vivo, BALB/c mice. To be noted: administered to balb/s mice; Cu complex. The source says:
For example, the functional group of R^5 may be hydrophobic or may be hydrophilic. Having a hydrophobic entity will encourage clearance of a compound of the present invention that is complexed with a metal ion or metal ion radionuclide through the liver, while a hydrophilic entity will predominantly clear through the kidney.

The conditions of data set [2]: 64Cu radiolabelling at room temperature; kinetically inert complexes; cited from earlier work.

As for `NC12CNCCNCC(N)(CNCCNC1)CNCCNC2.[Cu+2]` [Cu-diamsar], in data set [1], the “clearance / retention in the kidneys” value is listed as “rapidly cleared from the kidneys”.

`C1CNCC2CNCCNCC(CN1)CNCCNC2.[Cu+2]` [Cu-sar]: in data set [1], the “clearance / retention in the kidneys” value is “retained for a relatively longer period of time in the kidneys”.

As to `Nc1ccc(CNC23CNCCNCC(N)(CNCCNC2)CNCCNC3)cc1` [Sarar, 1-N-(4-aminobenzyl)-3,6,10,13,16,19-hexaazabicyclo[6.6.6]eicosane-1,8-diamine], in data set [2], the “stability of 64Cu complex to excess EDTA challenge” value was “stable to excess EDTA challenge”.
